# Laboratory results: patent US20080132565A1, “Polycyclic Macrolactones” (priority 2003, published 2008)
# Read-outs that look alike come from different tables or passages of the source.
# Tests used:
# [1] = physicochemical properties: solubility
# [2] = system: Streptomyces viridochromogenes Tü 57; experiment: agar diffusion test; format: cell-based; conditions: CM, 10 μl per filter disk
# Protocol: (§1) The Gram-negative bacteria and fungi which were tested were insensitive to the abyssomicins.
# [3] = system: Rhodococcus erythropolis DSM 1069; experiment: agar diffusion test; format: cell-based; conditions: 10 μl per filter disk
# Protocol: as §1
# [4] = system: Staphylococcus aureus DSM 20231; experiment: agar diffusion test; format: cell-based; conditions: CM, 10 μl per filter disk
# Protocol: as §1
# Bacillus subtilis DSM 10 [5] = experiment: agar diffusion test; format: cell-based; conditions: 10 μl per filter disk
# Protocol: as §1
# [6] = system: Brevibacillus brevis DSM 30; experiment: agar diffusion test; format: cell-based; conditions: 10 μl per filter disk
# Protocol: as §1
# [7] = system: Arthrobacter aurescens DSM 20166; experiment: agar diffusion test; format: cell-based; conditions: CM, 10 μl per filter disk
# Protocol: as §1
# [8] = system: Rhodococcus erythropolis DSM 1069; experiment: MIC dilution series test; format: cell-based; conditions: CM (complex medium); 2 ml test tube scale, shaker at 120 rpm
# Protocol: (§2) The minimum inhibitory concentration (MIC) of abyssomicin C was determined in a dilution series test. As expected, the test organisms are substantially more sensitive to abyssomicin C in chemically defined medium.
# [9] = system: Staphylococcus aureus DSM 20231; experiment: MIC dilution series test; format: cell-based; conditions: CM (complex medium); 2 ml test tube scale, shaker at 120 rpm
# Protocol: as §2
# Bacillus subtilis DSM 10 [10] = experiment: MIC dilution series test; format: cell-based; conditions: 2 ml test tube scale, shaker at 120 rpm
# Protocol: as §2
# Gram-positive bacteria = experiment: agar diffusion test, activity spectrum; format: cell-based; conditions: Gram-positive bacteria tested
# Protocol: as §1
compound,measurement,setting,value
CC1CC(C)/C(O)=C2/C(=O)OC34CC(C)C5OC23C(CC4C5O)C1=O (stereo not drawn) [abyssomicin D],solubility,[1]; in methanol and DMSO,soluble
abyssomicin C,inhibition zone diameter,[2]; 0.3 mg/ml,9 mm
same,inhibition zone diameter,[2]; 1 mg/ml,11 mm
same,inhibition zone diameter,"[3]; CM (first line, r17), 0.1 mg/ml",15 mm
same,inhibition zone diameter,"[3]; CM (first line, r17), 0.3 mg/ml",18 mm
same,inhibition zone diameter,"[3]; CM (first line, r17), 1 mg/ml",27 mm
same,inhibition zone diameter,"[3]; CM (second line, r18), 0.1 mg/ml",21 mm
same,inhibition zone diameter,"[3]; CM (second line, r18), 0.3 mg/ml",28 mm
same,inhibition zone diameter,"[3]; CM (second line, r18), 1 mg/ml",30 mm
same,inhibition zone diameter,[4]; 0.1 mg/ml,9 mm
same,inhibition zone diameter,[4]; 0.3 mg/ml,11 mm
same,inhibition zone diameter,[4]; 1 mg/ml,19 mm
same,inhibition zone diameter,"Bacillus subtilis DSM 10 [5]; CM, 0.1 mg/ml",10 mm
same,inhibition zone diameter,"Bacillus subtilis DSM 10 [5]; CM, 0.3 mg/ml",12 mm
same,inhibition zone diameter,"Bacillus subtilis DSM 10 [5]; CM, 1 mg/ml",16 mm
same,inhibition zone diameter,"Bacillus subtilis DSM 10 [5]; MM, 0.1 mg/ml",14 mm
same,inhibition zone diameter,"Bacillus subtilis DSM 10 [5]; MM, 0.3 mg/ml",19 mm
same,inhibition zone diameter,"Bacillus subtilis DSM 10 [5]; MM, 1 mg/ml",26 mm
same,inhibition zone diameter,"[6]; CM, 0.1 mg/ml",9 mm
same,inhibition zone diameter,"[6]; CM, 0.3 mg/ml",12 mm
same,inhibition zone diameter,"[6]; CM, 1 mg/ml",17 mm
same,inhibition zone diameter,"[6]; MM, 0.1 mg/ml",19 mm
same,inhibition zone diameter,"[6]; MM, 0.3 mg/ml",24 mm
same,inhibition zone diameter,"[6]; MM, 1 mg/ml",30 mm
same,inhibition zone diameter,[7]; 0.3 mg/ml,10 mm
same,inhibition zone diameter,[7]; 1 mg/ml,14 mm
same,solubility,[1],soluble
same,Minimum inhibitory concentration (MIC),[8],10 µg/mL
same,Minimum inhibitory concentration (MIC),[9],100 µg/mL
same,Minimum inhibitory concentration (MIC),Bacillus subtilis DSM 10 [10]; CM (complex medium),10 µg/mL
same,Minimum inhibitory concentration (MIC),Bacillus subtilis DSM 10 [10]; MM (chemically defined medium),0.1 µg/mL
same,antibiotic effect,Gram-positive bacteria,antibiotic effect
CC1CC(C)C2(O)CC(=NO2)C2C(O)C3OC4=C(C(=O)OC42CC3C)C1=O (stereo not drawn) [abyssomicin B],solubility,[1]; in methanol and DMSO,soluble
